Measurements from US12077503B2, “Substituted cyclic amides and their use as herbicides” (FMC CORPORATION, priority 2015, dated 2024).

What was measured:
Format in all cases: in vivo
corn (Zea mays) = assay: Test A postemergence
Outline: (§1)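 Seeded soil received test chemicals as a preemergence directed spray, and seedlings at one to two leaves, 2–10 cm tall, received them postemergence, in a non-phytotoxic, surfactant-containing solvent mixture. Pots were held in a greenhouse for approximately 10 d, then rated for injury from 0, no effect, to 100, complete control.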

[1] = system: ragweed (common ragweed, Ambrosia elatior); assay: Test A postemergence
Outline: as §1

Kochia (Kochia scoparia) [2] = assay: Test A postemergence
Outline: as §1

[3] = system: giant foxtail (Setaria faberii); assay: Test A postemergence
Outline: as §1

[4] = system: wheat (Triticum aestivum); assay: Test A postemergence
Outline: as §1

[5] = system: Galium (catchweed bedstraw, Galium aparine); assay: Test A postemergence
Outline: as §1

[6] = system: blackgrass (Alopecurus myosuroides); assay: Test A postemergence
Outline: as §1

[7] = system: ryegrass, Italian (Italian ryegrass, Lolium multiflorum); assay: Test A postemergence
Outline: as §1

[8] = system: barnyardgrass (Echinochloa crus-galli); assay: Test A postemergence
Outline: as §1

[9] = system: pigweed (Amaranthus retroflexus); assay: Test A postemergence
Outline: as §1

[10] = system: ragweed (common ragweed, Ambrosia elatior); assay: Test C preemergence; details: for Plant response rating (scale of 0 to 100), Ragweed: 31 g ai/ha, 0 is no effect, 100 is complete control; for Plant response rating, Ragweed: scale 0 to 100, 0 no effect, 100 complete control
Outline: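 Preemergence application to seeds in loam/sand soil, or foliar (postemergence) application to plants 2–18 cm tall in peat moss/vermiculite medium; surfactant-containing non-phytotoxic solvent vehicle; greenhouse. Visual injury vs controls at 13–15 d; 0 = no effect, 100 = complete control.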

[11] = system: ragweed (common ragweed, Ambrosia elatior); assay: Test A preemergence
Outline: as §1

Kochia (Kochia scoparia) [12] = assay: Test A preemergence
Outline: as §1

[13] = system: giant foxtail (Setaria faberii); assay: Test A preemergence
Outline: as §1

[14] = system: ryegrass, Italian (Italian ryegrass, Lolium multiflorum); assay: Test A preemergence
Outline: as §1

[15] = system: barnyardgrass (Echinochloa crus-galli); assay: Test A preemergence
Outline: as §1

[16] = system: pigweed (Amaranthus retroflexus); assay: Test A preemergence
[17] = system: sedge, umbrella (small-flower umbrella sedge, Cyperus difformis); assay: Test B flooded paddy test; details: Flood, 250 g ai/ha; 0 to 100 scale where 0 is no effect and 100 is complete control; 13 to 15 d
Outline: (§2)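 Flooding to 3 cm over soil accompanied treatment, which consisted of adding compound to the standing water around 2-leaf plants; depth was then maintained. Visual assessment versus controls followed at 13 to 15 d (scale 0–100, 0 meaning no effect).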

rice (Oryra sativa) = assay: Test B flooded paddy test; details: Flood, 250 g ai/ha; 0 to 100 scale where 0 is no effect and 100 is complete control; 13 to 15 d
Outline: as §2

[18] = system: ducksalad (Heteranthera limosa); assay: Test B flooded paddy test; details: Flood, 250 g ai/ha; 0 to 100 scale where 0 is no effect and 100 is complete control; 13 to 15 d
Outline: as §2

[19] = system: barnyardgrass (Echinochloa crus-galli); assay: Test B flooded paddy test; details: Flood, 250 g ai/ha; 0 to 100 scale where 0 is no effect and 100 is complete control; 13 to 15 d
Outline: as §2

[20] = 125 g ai/ha, postemergence, visual injury rating on 0 to 100 scale (0 no effect, 100 complete control), approx. 10 d
[21] = Postemergence, 500 g ai/ha, 0 to 100 scale where 0 is no effect and 100 is complete control
[22] = 125 g ai/ha, Preemergence, visual injury after approximately 10 d, 0 to 100 scale where 0 is no effect and 100 is complete control
[23] = Preemergence, 500 g ai/ha, visual injury approx. 10 d
[24] = 125 g ai/ha, postemergence, visual rating after approx. 10 d, 0 to 100 scale (0 no effect, 100 complete control)
[25] = 500 g ai/ha, preemergence, 0 to 100 scale, 0 = no effect, 100 = complete control

Row | SMILES | Plant response rating, Corn (corn (Zea mays); [21]) | Plant response rating, Ragweed [1, 21] | Plant response rating, Kochia (Kochia (Kochia scoparia) [2]; [21]) | Plant response rating, Foxtail, Giant [3, 21] | Plant response rating, Wheat [4, 21] | Plant response rating, Galium [5, 21] | Plant response rating, Blackgrass [6, 21] | Plant response rating, Ryegrass, Italian [7, 21] | Plant response rating, Barnyardgrass [8, 21] | Plant response rating, Pigweed [9, 21] | Plant response rating (scale of 0 to 100), Ragweed [10] | Plant response rating, Ragweed ([10]; 62 g ai/ha) | Plant response rating, Ragweed ([10]; 125 g ai/ha) | Plant response rating, Ragweed ([10]; 250 g ai/ha) | Plant response rating, Ragweed [11, 22] | Plant response rating, Kochia (Kochia (Kochia scoparia) [12]; [22]) | Plant response rating, Foxtail, Giant [13, 22] | Plant response rating, Ryegrass, Italian [14, 22] | Plant response rating, Barnyardgrass [15, 22] | Plant response rating, Pigweed [16, 22] | further results
1 | O=C1NCC(c2cc(F)cc(C(F)(F)F)c2)C1C(=O)Nc1cccc(F)c1F (centres unmarked) [Compound 488] | 80 | 20 | 60 | 90 | 60 | 50 | 70 | 60 | 90 | 50 | 0 | 25 | 40 | 70 | 70 | 70 | 90 | 30 | 90 | 50 | Corn plant response rating (corn (Zea mays); [20]): 70; Ragweed plant response rating [1, 20]: 20; Kochia plant response rating (Kochia (Kochia scoparia) [2]; [20]): 30; Foxtail, Giant plant response rating [3, 20]: 90; Wheat plant response rating [4, 20]: 50; Galium plant response rating [5, 20]: 50; Blackgrass plant response rating [6, 20]: 60; Ryegrass, Italian plant response rating [7, 20]: 30; Barnyardgrass plant response rating [8, 20]: 90; Pigweed plant response rating [9, 20]: 40; Ragweed plant response rating (0 to 100 scale, 0 is no effect, 100 is complete control) [11, 23]: 80; Kochia plant response rating (0 to 100 scale, 0 is no effect, 100 is complete control) (Kochia (Kochia scoparia) [12]; [23]): 70; Foxtail, Giant plant response rating (0 to 100 scale, 0 is no effect, 100 is complete control) [13, 23]: 90; Ryegrass, Italian plant response rating (0 to 100 scale, 0 is no effect, 100 is complete control) [14, 23]: 70; Barnyardgrass plant response rating (0 to 100 scale, 0 is no effect, 100 is complete control) [15, 23]: 90; Pigweed plant response rating (0 to 100 scale, 0 is no effect, 100 is complete control) [16, 23]: 70; Plant response rating, Sedge, Umbrella [17]: 0; Plant response rating, Rice (rice (Oryra sativa)): 30; Plant response rating, Ducksalad [18]: 90; Plant response rating, Barnyardgrass [19]: 65
2 | CN1CC(c2cccc(OC(F)F)c2)C(C(=O)Nc2cccc(F)c2F)C1=O (centres unmarked) [Compound 616] | 80 | 20 | 70 | 90 | 70 | 70 | 60 | 80 | 90 | 60 | 25 | 25 | 50 | 75 | 80 | 70 | 90 | 80 | 90 | 80 | Plant response rating, Corn (corn (Zea mays); [24]): 70; Plant response rating, Ragweed [1, 24]: 0; Plant response rating, Kochia (Kochia (Kochia scoparia) [2]; [24]): 50; Plant response rating, Foxtail, Giant [3, 24]: 90; Plant response rating, Wheat [4, 24]: 60; Plant response rating, Galium [5, 24]: 60; Plant response rating, Blackgrass [6, 24]: 50; Plant response rating, Ryegrass, Italian [7, 24]: 50; Plant response rating, Barnyardgrass [8, 24]: 90; Plant response rating, Pigweed [9, 24]: 40; Plant response rating, Ragweed [11, 25]: 80; Plant response rating, Kochia (Kochia (Kochia scoparia) [12]; [25]): 80; Plant response rating, Foxtail, Giant [13, 25]: 100; Plant response rating, Ryegrass, Italian [14, 25]: 90; Plant response rating, Barnyardgrass [15, 25]: 90; Plant response rating, Pigweed [16, 25]: 90; Plant response rating, Sedge, Umbrella [17]: 0; Plant response rating, Rice (rice (Oryra sativa)): 10; Plant response rating, Ducksalad [18]: 100; Plant response rating, Barnyardgrass [19]: 70
